Key:
[1] = Hepatocyte stability assay, mouse; type: in vitro ADME; conditions: mouse, hepatocytes
How it was run: (§1)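 Cryopreserved hepatocytes (viability >70%), 0.5×10^6 cells/mL in Leibovitz buffer, preincubated 10 min at 37° C, then 10 μM compound (0.1% DMSO) in duplicate; sampled 0-60 min, acetonitrile quench, LC-MS/MS. CLint and half-life from ln % remaining vs time; buffer-only incubation as negative control.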

[2] = test system: mouse cryopreserved hepatocytes; experiment: Hepatocyte stability assay, mouse; type: in vitro ADME
How it was run: as §1

[3] = test system: NRF2 (nuclear factor erythroid 2-related factor 2); experiment: NRF2 +/-GSH activation assay (DiscoverX PathHunter NRF2 translocation kit, U2OS cells); type: cell-based
How it was run: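 U2OS PathHunter eXpress cells, 24 h post-plating, treated with compound ±GSH (+GSH arm: 30 min compound–GSH pre-incubation, 6 mM working GSH), then 6 h at 37 °C. NRF2 nuclear translocation read by enzyme-fragment-complementation chemiluminescence; % activation normalised to DMF high and untreated low controls.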

[4] = Hepatocyte stability assay, human; type: in vitro ADME; conditions: human, hepatocytes
How it was run: as §1

[5] = test system: human cryopreserved hepatocytes; experiment: Hepatocyte stability assay, human; type: in vitro ADME
How it was run: as §1

[6] = test system: IL-1β cytokine output from THP-1s; experiment: THP-1 AlphaLISA IL-1β cytokine inhibition assay; type: cell-based
How it was run: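 THP-1 cells differentiated with PMA for 72 h, pre-incubated with compound 30 min, then LPS-primed 24 h and Nigericin-stimulated 1 h (37° C./5% CO2). Supernatant IL-1β measured by AlphaLISA; percentage inhibition normalised to +LPS (high) and −LPS (low) plate controls.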

[7] = test system: IL-6 cytokine output from THP-1s; experiment: THP-1 AlphaLISA IL-6 cytokine inhibition assay; type: cell-based
How it was run: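 THP-1 cells differentiated with PMA for 72 h, then pre-incubated with compound 30 min, stimulated with LPS 24 h, then Nigericin 1 h, all at 37° C. Supernatant IL-6 measured by AlphaLISA. Percentage inhibition normalized to +/− LPS plate controls.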

[8] = −GSH, normalised to DMF high control
[9] = Homo sapiens, THP-1, differentiated THP-1 cells, LPS then nigericin
[10] = Homo sapiens, THP-1, differentiated THP-1 cells, data from repeated experiments
[11] = Mouse hepatocytes, compound 10 μM, 0.5×10^6 cells/mL, 60 minutes (a n=2, b n=3)
[12] = Human hepatocytes, compound 10 μM, 0.5×10^6 cells/mL, 60 minutes (a n=2, c n=4)
[13] = differentiated THP-1 cells, LPS then nigericin

C=C(Cc1nc(CCCCCCCC)no1)C(=O)O [Example 1, 2-((3-octyl-1,2,4-oxadiazol-5-yl)methyl)acrylic acid]
hepatocyte CLint at 10 μM ([1]; Hepatocyte stability Clint): 118 µL/min/1e6 cells
half-life at 10 μM ([1]; Hepatocyte stability T½): 12 min
stability in mouse cryopreserved hepatocytes, in words ([2]; mouse, hepatocytes): improved stability
NRF2 activation +GSH Emax ([3]; normalised to DMF high control): 187%
NRF2 activation, result in words ([3]; −GSH and/or +GSH): activated NRF2 more potently and with higher efficacy than 4-octyl itaconate and 2-(2-chlorobenzyl)acrylic acid
NRF2 activation −GSH Emax [3, 8]: 243%
−GSH Emax ([3]; −GSH, normalised to DMF high control, Table 5 exo vs endo comparison): 243%
hepatocyte CLint at 10 μM ([4]; Hepatocyte stability Clint): 115 µL/min/1e6 cells
half-life at 10 μM ([4]; Hepatocyte stability T½): 12 min
stability in human cryopreserved hepatocytes, in words ([5]; human, hepatocytes): improved stability
IC50 ([6]; Homo sapiens, THP-1, Table 3, head to head comparison of exo vs endo double bond compounds): 4.9 µM
IC50 ([6]; Homo sapiens, THP-1, Table 3, data from repeated experiment): 4.7 µM
IC50 [6, 9]: 4.9 µM
IC50 [6, 10]: 4.7 µM
reduction of cytokine release versus comparators, in words ([6]; compared with 4-octyl itaconate and 2-(2-chlorobenzyl)acrylic acid): reduced cytokine release more effectively than 4-octyl itaconate and 2-(2-chlorobenzyl)acrylic acid
IC50 [7, 9]: 3.7 µM
IC50 [7, 10]: 4 µM

C=C(CC(=O)OCCCCCCCC)C(=O)O [4-octyl itaconate, 4-Octyl itaconate, reference compound]
Hepatocyte stability Clint [2, 11]: 351 μL min^−1 10^−6 cells
Hepatocyte stability T½ [2, 11]: 4 min
NRF2 activation +GSH Emax ([3]; normalised to DMF high control): 148%
NRF2 activation −GSH Emax [3, 8]: 165%
Hepatocyte stability Clint [5, 12]: 401 μL min^−1 10^−6 cells
Hepatocyte stability T½ [5, 12]: 4 min
IC50 [6, 13]: 37.8 µM
IC50 [7, 13]: 19.1 µM
